For one test, the target named is T1, human CB1 receptor (Homo sapiens, UniProt P21554).
T1 construct: host or cells: CHO-K1 (Chinese hamster ovary) cells, stably transfected; membranes prepared in house
The test is described as follows: CB1 radioligand competitive binding assay ([3H]CP 55,940 displacement). Conditions: for Selectivity CB1: fold difference between CB1 and CB2 binding, printed in column of receptor with higher affinity, 1.00 in both = same affinity.

For a further test, the target named is T2, human CB2 receptor (Homo sapiens, UniProt P34972).
T2 construct: host or cells: CHO-K1 (Chinese hamster ovary) cells, stably transfected; membranes prepared in house
T2 sequence (P34972 whole entry): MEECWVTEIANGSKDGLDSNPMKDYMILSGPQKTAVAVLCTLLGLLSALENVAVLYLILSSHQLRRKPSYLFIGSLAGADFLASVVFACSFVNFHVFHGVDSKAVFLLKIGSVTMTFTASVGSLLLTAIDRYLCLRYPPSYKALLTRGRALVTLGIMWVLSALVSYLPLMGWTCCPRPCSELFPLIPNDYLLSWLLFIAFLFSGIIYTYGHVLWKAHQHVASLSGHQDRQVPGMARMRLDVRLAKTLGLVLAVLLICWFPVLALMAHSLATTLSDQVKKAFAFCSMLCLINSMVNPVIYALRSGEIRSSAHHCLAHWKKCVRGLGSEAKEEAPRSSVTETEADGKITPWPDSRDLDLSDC
As to the kind of experiment: CB2 radioligand competitive binding assay ([3H]CP 55,940 displacement). Conditions: for Selectivity CB2: fold difference between CB1 and CB2 binding, printed in column of receptor with higher affinity, 1.00 in both = same affinity.

The mark [1] stands for this setting: [3H]CP 55,940 displacement, membranes of CHO-K1 cells expressing human CB1 receptor, read-out: CB1 IC50.
Where [2] appears, read: [3H]CP 55,940 displacement, membranes of CHO-K1 cells expressing human CB2 receptor, read-out: CB2 IC50.

The record followed here is patent publication US12630492B2, “Cannabinoid derivatives” (CANOPY GROWTH CORPORATION, priority 2019, dated 2026).

Each structure is given as a SMILES string. pIC50: −log10 of the molar value. Read-outs that look alike come from different tables or passages of the source.

T1 sequence (P21554 whole entry): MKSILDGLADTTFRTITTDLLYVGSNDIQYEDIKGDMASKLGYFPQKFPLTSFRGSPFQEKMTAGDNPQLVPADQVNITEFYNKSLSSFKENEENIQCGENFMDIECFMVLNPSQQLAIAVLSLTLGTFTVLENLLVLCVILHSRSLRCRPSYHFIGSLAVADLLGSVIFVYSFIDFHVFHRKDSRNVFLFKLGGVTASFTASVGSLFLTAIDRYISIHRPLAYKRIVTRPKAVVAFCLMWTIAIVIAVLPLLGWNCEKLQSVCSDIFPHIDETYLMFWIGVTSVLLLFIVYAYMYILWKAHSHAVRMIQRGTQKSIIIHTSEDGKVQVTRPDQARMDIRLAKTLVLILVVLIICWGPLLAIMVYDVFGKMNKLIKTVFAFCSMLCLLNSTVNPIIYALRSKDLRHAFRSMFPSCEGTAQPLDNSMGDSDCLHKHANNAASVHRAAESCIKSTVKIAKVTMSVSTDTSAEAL

Usually pIC50 stands for the IC50 on a negative log10 scale, so that one unit is a factor of ten. As to `C=C(C)C1CCC(C)=CC1c1c(OCOC2CCCCC2)cc(CCCCC)cc1OCOC1CCCCC1` (stereo not shown) [18′d, 2′,6′-bis((cyclohexyloxy)methoxy)-5-methyl-4′-pentyl-2-(prop-1-en-2-yl)-1,2,3,4-tetrahydro-1,1′-biphenyl], the pIC50 at human CB1 receptor (setting [1]) and on human CB2 receptor (setting [2]) was less than 5.00 in each case. For the same molecule, the “Selectivity CB1” value on human CB1 receptor was 1.00. The “Selectivity CB2” value on human CB2 receptor is 1.00.
For the molecule `C=C(C)C1CCC(C)=CC1c1c(OCOCC)cc(C(C)(C)CCCCCC)cc1OCOCC` (stereo not shown) [19′d, 2′,6′-bis(ethoxymethoxy)-5-methyl-4′-(2-methyloctan-2-yl)-2-(prop-1-en-2-yl)-1,2,3,4-tetrahydro-1,1′-biphenyl], the pIC50 at human CB1 receptor (setting [1]) and at human CB2 receptor (setting [2]) was 5.00 to 6.00 in each case. Further, the “Selectivity CB2” value on human CB2 receptor came to 2.00.
As for `C=C(C)C1CCC(C)=CC1c1c(OCN(C(=O)OC)c2ccccc2)cc(C(C)(C)CCCCCC)cc1OCN(C(=O)OC)c1ccccc1` (stereo not shown) [20′d, dimethyl (((5′-methyl-4-(2-methyloctan-2-yl)-2′-(prop-1-en-2-yl)-1′,2′,3′,4′-tetrahydro-[1,1′-biphenyl]-2,6-diyl)bis(oxy))bis(methylene))bis(phenylcarbamate)], the pIC50 on human CB1 receptor (setting [1]) was less than 5.00; at human CB2 receptor (setting [2]), 5.00 to 6.00. Also, at human CB2 receptor, the “Selectivity CB2” value is on record as 1.25.
For `C=C(C)C1CCC(C)=CC1c1c(OCOC(=O)C(C)(C)C)cc(C(C)(C)CCCCCC)cc1OCOC(=O)C(C)(C)C` (stereo not shown) [21′d, ((5′-methyl-4-(2-methyloctan-2-yl)-2′-(prop-1-en-2-yl)-1′,2′,3′,4′-tetrahydro-[1,1′-biphenyl]-2,6-diyl)bis(oxy))bis(methylene) bis(2,2-dimethylpropanoate)] the same measures were less than 5.00, 5.00 to 6.00 and 13.33.
For `CCCCCc1cc(O)c(-c2cccc(C)c2)c(OCOCCOC)c1` [Compound 2a, 6-((2-methoxyethoxy)methoxy)-3′-methyl-4-pentyl-[1,1′-biphenyl]-2-ol], the pIC50 at human CB1 receptor (setting [1]) was 5.00 to 6.00; at human CB2 receptor (setting [2]), 6.00 to 7.30. Further, the “Selectivity CB2” value at human CB2 receptor is 11.11.
For `CCCCCc1cc(O)c(C2C=C(C)CCC2)c(OCOCCOC)c1` (stereo not shown) [Compound 2c, 6-((2-methoxyethoxy)methoxy)-5′-methyl-4-pentyl-1′,2′,3′,4′-tetrahydro-[1,1′-biphenyl]-2-ol] the same measures were 5.00 to 6.00, 6.00 to 7.30 and 13.33.
As to `C=C(C)C1CCC(C)=CC1c1c(O)cc(CCCCC)cc1OCOCCOC` (stereo not shown) [Compound 2d, 6-((2-methoxyethoxy)methoxy)-5′-methyl-4-pentyl-2′-(prop-1-en-2-yl)-1′,2′,3′,4′-tetrahydro-[1,1′-biphenyl]-2-ol], the pIC50 at human CB1 receptor (setting [1]) and at human CB2 receptor (setting [2]) was 5.00 to 6.00 in each case. The “Selectivity CB2” value at human CB2 receptor amounted to 1.59.
On to `CCCCCc1cc(O)c(-c2cccc(C)c2)c(OCOC(=O)OCC)c1` [Compound 5a, ethyl [3-hydroxy-2-(m-tolyl)-5-pentyl-phenoxy]methyl carbonate], for which the pIC50 at human CB1 receptor was 5.00 to 6.00; on human CB2 receptor it was 6.00 to 7.30. In addition, on human CB2 receptor, the “Selectivity CB2” value stood at 7.89.
On to `CCCCCc1cc(O)c(C2C=C(C)CCC2)c(OCOC(=O)OCC)c1` (stereo not shown) [Compound 5c, ethyl (((6-hydroxy-5′-methyl-4-pentyl-1′,2′,3′,4′-tetrahydro-[1,1′-biphenyl]-2-yl)oxy)methyl) carbonate], for which the results for the pIC50 at human CB1 receptor (setting [1]) and at human CB2 receptor (setting [2]) were 5.00 to 6.00 and 6.00 to 7.30, respectively. Moreover, the “Selectivity CB2” value at human CB2 receptor was 9.09.
For the molecule `C=C(C)[C@@H]1CCC(C)=C[C@H]1c1c(O)cc(CCCCC)cc1OCOC(=O)OCC` [Compound 5d, ethyl (((6-hydroxy-5′-methyl-4-pentyl-2′-(prop-1-en-2-yl)-1′,2′,3′,4′-tetrahydro-[1,1′-biphenyl]-2-yl)oxy)methyl) carbonate], the pIC50 at human CB1 receptor was 5.00 to 6.00. In addition, on human CB2 receptor, the pIC50 was 5.00 to 6.00 and the “Selectivity CB2” value worked out at 2.00.
Consider `CCCCCc1cc(O)c(-c2cccc(C)c2)c(OCOC(=O)C(C)(C)C)c1` [Compound 8a, [3-hydroxy-2-(m-tolyl)-5-pentyl-phenoxy]methyl 2,2-dimethylpropanoate], for which the pIC50 at human CB1 receptor (setting [1]) was 6.00 to 7.30; at human CB2 receptor (setting [2]), greater than 7.30. In addition, the “Selectivity CB2” value on human CB2 receptor came out at 9.39.
As to `CCCCCc1cc(O)c(C2C=C(C)CCC2)c(OCOC(=O)C(C)(C)C)c1` (stereo not shown) [Compound 8c, ((6-hydroxy-5′-methyl-4-pentyl-1′,2′,3′,4′-tetrahydro-[1,1′-biphenyl]-2-yl)oxy)methyl pivalate], the pIC50 is 6.00 to 7.30 at human CB1 receptor (setting [1]) and greater than 7.30 at human CB2 receptor (setting [2]). In addition, the “Selectivity CB2” value at human CB2 receptor was determined as 8.85.
For `C=C(C)C1CCC(C)=CC1c1c(O)cc(CCCCC)cc1OCOC(=O)C(C)(C)C` (stereo not shown) [Compound 8d, ((6-hydroxy-5′-methyl-4-pentyl-2′-(prop-1-en-2-yl)-1′,2′,3′,4′-tetrahydro-[1,1′-biphenyl]-2-yl)oxy)methyl pivalate] the same measures were 6.00 to 7.30, 6.00 to 7.30 and 1.76.
As to `CCCCCc1cc(O)c(-c2cccc(C)c2)c(OCN(C(=O)OC)c2ccccc2)c1` [Compound 14a, methyl (((6-hydroxy-3′-methyl-4-pentyl-[1,1′-biphenyl]-2-yl)oxy)methyl)(phenyl)carbamate], the pIC50 on human CB1 receptor (setting [1]) was 5.00 to 6.00; on human CB2 receptor (setting [2]), 6.00 to 7.30. Further, on human CB2 receptor, the “Selectivity CB2” value was 9.84.
On to `CCCCCc1cc(O)c(C2C=C(C)CCC2)c(OCN(C(=O)OC)c2ccccc2)c1` (stereo not shown) [Compound 14c, methyl (((6-hydroxy-5′-methyl-4-pentyl-1′,2′,3′,4′-tetrahydro-[1,1′-biphenyl]-2-yl)oxy)methyl)(phenyl)carbamate], for which the pIC50 at human CB1 receptor (setting [1]) and at human CB2 receptor (setting [2]) was 5.00 to 6.00 throughout. In addition, at human CB1 receptor, the “Selectivity CB1” value came to 1.36.
Take `C=C(C)[C@@H]1CCC(C)=C[C@H]1c1c(O)cc(CCCCC)cc1OCN(C(=O)OC)c1ccccc1` [Compound 14d, methyl (((6-hydroxy-5′-methyl-4-pentyl-2′-(prop-1-en-2-yl)-1′,2′,3′,4′-tetrahydro-[1,1′-biphenyl]-2-yl)oxy)methyl)(phenyl)carbamate]: at human CB1 receptor, the pIC50 is 6.00 to 7.30 and the “Selectivity CB1” value is on record as 2.53. Besides, the pIC50 on human CB2 receptor is 6.00 to 7.30.
For the molecule `CCCCCc1cc(O)c(-c2cccc(C)c2)c(OCOCC)c1` [Compound 17a, 6-(ethoxymethoxy)-3′-methyl-4-pentyl-[1,1′-biphenyl]2-ol], the pIC50 at human CB1 receptor (setting [1]) and on human CB2 receptor (setting [2]) was 5.00 to 6.00 each time. The “Selectivity CB2” value at human CB2 receptor came out at 5.20.
For `CCCCCc1cc(O)c(C2C=C(C)CCC2)c(OCOCC)c1` (stereo not shown) [Compound 17c, 6-(ethoxymethoxy)-5′-methyl-4-pentyl-1′,2′,3′,4′-tetrahydro-[1,1′-biphenyl]-2-ol], the values for the pIC50 at human CB1 receptor (setting [1]) and at human CB2 receptor (setting [2]) were 5.00 to 6.00 and 6.00 to 7.30, respectively. Further, the “Selectivity CB2” value on human CB2 receptor turned out to be 2.47.
Take `C=C(C)C1CCC(C)=CC1c1c(O)cc(CCCCC)cc1OCOCC` (stereo not shown) [Compound 17d, 6-(ethoxymethoxy)-5′-methyl-4-pentyl-2′-(prop-1-en-2-yl)-1′,2′,3′,4′-tetrahydro-[1,1′-biphenyl]-2-ol]: the pIC50 on human CB1 receptor (setting [1]) is 5.00 to 6.00; on human CB2 receptor (setting [2]) it was 6.00 to 7.30. Also, the “Selectivity CB2” value on human CB2 receptor was found to be 1.53.
The corresponding values for `C=C(C)C1CCC(C)=CC1c1c(O)cc(CCCCC)cc1OCOC1CCCCC1` (stereo not shown) [Compound 18d, 6-((cyclohexyloxy)methoxy)-5′-methyl-4-pentyl-2′-(prop-1-en-2-yl)-1′,2′,3′,4′-tetrahydro-[1,1′-biphenyl]-2-ol] are 5.00 to 6.00, 6.00 to 7.30 and 3.23.
Take `C=C(C)C1CCC(C)=CC1c1c(O)cc(C(C)(C)CCCCCC)cc1OCOCC` (stereo not shown) [Compound 19d, 6-(ethoxymethoxy)-5′-methyl-4-(2-methyloctan-2-yl)-2′-(prop-1-en-2-yl)-1′,2′,3′,4′-tetrahydro-[1,1′-biphenyl]-2-ol]: the pIC50 at human CB1 receptor (setting [1]) and on human CB2 receptor (setting [2]) was 6.00 to 7.30 in each case. Besides, the “Selectivity CB2” value at human CB2 receptor is on record as 1.83.
`C=C(C)C1CCC(C)=CC1c1c(O)cc(C(C)(C)CCCCCC)cc1OCN(C(=O)OC)c1ccccc1` (stereo not shown) [Compound 20d, methyl (((6-hydroxy-5′-methyl-4-(2-methyloctan-2-yl)-2′-(prop-1-en-2-yl)-1′,2′,3′,4′-tetrahydro-[1,1′-biphenyl]-2-yl)oxy)methyl)(phenyl)carbamate]: the pIC50 on human CB1 receptor (setting [1]) was 5.00 to 6.00; on human CB2 receptor (setting [2]) it was 6.00 to 7.30. For the same molecule, the “Selectivity CB2” value at human CB2 receptor is listed as 1.94.
`C=C(C)C1CCC(C)=CC1c1c(O)cc(C(C)(C)CCCCCC)cc1OCOC(=O)C(C)(C)C` (stereo not shown) [Compound 21d, ((6-hydroxy-5′-methyl-4-(2-methyloctan-2-yl)-2′-(prop-1-en-2-yl)-1′,2′,3′,4′-tetrahydro-[1,1′-biphenyl]-2-yl)oxy)methyl pivalate]: the pIC50 at human CB1 receptor (setting [1]) and on human CB2 receptor (setting [2]) was 5.00 to 6.00 throughout. The “Selectivity CB2” value at human CB2 receptor came to 1.25.
As to `C=C(C)[C@@H]1CCC(C)=C[C@H]1c1c(O)cc(C(C)(C)CCCCCC)cc1OCOC(=O)OCC` [Compound 22d, ethyl (((6-hydroxy-5′-methyl-4-(2-methyloctan-2-yl)-2′-(prop-1-en-2-yl)-1′,2′,3′,4′-tetrahydro-[1,1′-biphenyl]-2-yl)oxy)methyl) carbonate], the results for the pIC50 at human CB1 receptor (setting [1]) and at human CB2 receptor (setting [2]) were 6.00 to 7.30 and greater than 7.30, respectively. On human CB2 receptor, the “Selectivity CB2” value worked out at 1.67.
In the case of `C=C(C)[C@@H]1CCC(C)=C[C@H]1c1c(O)cc(CCC)cc1OCOC(=O)C(C)(C)C` [Compound 23d, ((6-hydroxy-5′-methyl-2′-(prop-1-en-2-yl)-4-propyl-1′,2′,3′,4′-tetrahydro-[1,1′-biphenyl]-2-yl)oxy)methyl pivalate], the pIC50 on human CB1 receptor (setting [1]) and at human CB2 receptor (setting [2]) was 5.00 to 6.00 each time. Besides, the “Selectivity CB2” value at human CB2 receptor was found to be 2.50.
